Test results: US20260325645A1, “IMPROVEMENTS IN OR RELATING TO COMPOSITIONS FOR IMPROVEMENT OF PHOTODYNAMIC THERAPY” (SYDERMA LTD, priority 2023, published 2026)
Entries after “also recorded” stand apart in the source; their conditions may differ. Values belong to the compound of their own block, whether it stands above or below them.

Columns and labels:
actinic keratoses = assay: Theobromine alone on actinic keratoses (comparative Examples 4 and 5); type: in vivo, human; conditions: 0.5% theobromine solution applied once, 1 month later
Description: A person presented with actinic keratoses on their scalp. Three actinic keratoses were selected by a qualified dermatologist and treated once with 0.5% theobromine topical preparation solution. The theobromine solution was prepared in 25% ethanol and 50% glycerol, adjusted to pH 8 via 100 mM sodium hydrogen carbonate solution. For treatment, theobromine solution was applied to the selected lesions of the scalp in a thin aqueous film using 50 μL of the solution per lesion (1 drop). The solution was left to dry and permeate the skin for 20 minutes. The position of the lesions was marked with a water-soluble marker and the lesions were photographed. The patient was reviewed 1 month later by a qualified dermatologist and the lesions were compared with the baseline photographs.
A person presented with actinic keratoses on their face and scalp. An actinic keratosis was selected by a qualified dermatologist on their right cheek and treated once with 0.5% theobromine topical preparation solution. The theobromine solution was prepared in 25% ethanol and 50% glycerol, adjusted to pH 8 via 100 mM sodium hydrogen carbonate solution. For treatment, theobromine solution was applied to the selected lesions of the […] in a thin aqueous film using 50 μL of the solution per lesion (1 drop). The solution was left to dry and permeate the skin for 20 minutes. […]

acne = assay: Theobromine treatment of acne (comparative Examples 8-11); type: in vivo, human; conditions: 0.5% theobromine topical; for improvement of acne: data not shown
Description: (§1) A patient presented with acne bilaterally on their face. The acne presented as active inflammatory reaction or as visible white liquid-filled extrusions. For the purposes of the test, the affected area was split into two sections, left cheek and right cheek. The right face was treated with 0.5% theobromine topical preparation solution. The theobromine solution was prepared in 25% ethanol and 50% glycerol, adjusted to pH 8 via 100 mM sodium hydrogen carbonate solution.
For the purposes of the treatment, theobromine solution was applied to the right side of the face in a thin film using 100-200 μL of the solution (2-4 drops). The solution was left to dry and penetrate the skin for 20 minutes, after which both sides of the face were covered in the photosensitizer cream as per manufacturer's instructions, using 1-1.5 g of cream. The cream was left to penetrate the skin for 5-10 minutes and the patient was asked not to wash their face for 2 hours.
The patient was assessed first prior to treatment and subsequently 1 month after for the success and quantification of active acne on each side of the face by a qualified dermatologist.
as §1, with “The left” for “The right”
For the purposes of the treatment, theobromine solution was applied to the left side of the face in a thin film using 100-200 μL of the solution (2-4 drops). […]
The patient was assessed first prior to treatment and subsequently 6 weeks after for the success and quantification of active acne on each side of the face by a qualified dermatologist.

ATM = conditions: reference 10; cited from earlier work
ATR = conditions: reference 10; cited from earlier work
PARP = conditions: only compound with activity on PARP in addition to ATM and ATR; cited from earlier work
[1] = references 11, 12, 13; cited from earlier work
DNA repair = conditions: in vitro, through modulating the activity of ATM/ATR kinases, as well as PARP; references 10,11,12,14; cited from earlier work
active lesions (acne) = assay: Combined analysis of acne lesion clearance, Examples 3, 6 and 7 (FIG. 6); type: in vivo, human; conditions: pre- and final post-treatment data of Examples 3, 6 and 7; P 0.005 paired, two-tailed T-test
[2] = clinical trials; reference 17; cited from earlier work

- redness or soreness (actinic keratoses): No redness or soreness were observed
Structure (SMILES): Cn1cnc2c1c(=O)[nH]c(=O)n2C [theobromine]
- improvement of actinic keratosis (actinic keratoses; no photosensitizer): No improvement of actinic keratoses was observed; also recorded: No improvement of actinic keratosis was observed
- patient-reported adverse effects (acne; 1 month (Examples 8, 9, 10) or 6 weeks (Example 11)): No patient-reported adverse effects
- improvement of acne (acne; 1 month after (Examples 8, 9, 10)): did not improve acne
- improvement of acne (acne; 6 weeks after (Example 11)): did not improve acne
- ATM inhibition (ATM): inhibitors of both ATM and ATR
- ATR inhibition (ATR): inhibitors of both ATM and ATR
- PARP inhibitory activity (PARP): measurable PARP inhibitory activity
- radiosensitising activity [1]: radiosensitisers
- inhibition of DNA repair (DNA repair): inhibit DNA repair in vitro

Structure (SMILES): Cn1c(=O)c2[nH]cnc2n(C)c1=O [theophylline]
- radiosensitising activity [1]: radiosensitisers

Structure (SMILES): COC(=O)CCC(=O)CN [methyl aminolevulinate]
- average clearance of active lesions (active lesions (acne)): 32%

Structure (SMILES): CC(=O)CCCCn1c(=O)c2c(ncn2C)n(C)c1=O [pentoxyphilline]
- radiosensitising activity [1]: radiosensitisers
- clinical benefit as radiosensitiser [2]: failed to provide consistent benefits

Structure (SMILES): Cn1c(=O)c2c(ncn2C)n(C)c1=O [caffeine]
- ATM inhibition (ATM): inhibitors of both ATM and ATR
- ATR inhibition (ATR): inhibitors of both ATM and ATR
- radiosensitising activity [1]: radiosensitisers
